Series [1] deals with T1, human progelatinase A (GelA), catalytic and fibronectin-like portion (Homo sapiens, UniProt P08253).
T1 construct: The catalytic and fibronectin-like portion of human progelatinase A (GelA) was expressed as a fusion protein with ubiquitin; ubiquitin; made in house; host or cells: E. coli
As to the kind of experiment: Fluorometric MCA-peptide hydrolysis assay, gelatinase A (GelA). In kind it is biochemical. Particulars: apparent Ki; 10 μM MCA peptide substrate, 37° C., pH 7.5. The gist of the method:
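E. coli-expressed ubiquitin fusion of human proGelA catalytic plus fibronectin-like domains, autoactivated; 10 μM MCA-Pro-Leu-Gly-Leu-DPA-Ala-Arg-NH2, pH 7.5 Tricine/NaCl/CaCl2/Zn buffer, 2% DMSO, 37° C, 60 min. Fluorescence 328/393 nm; steady-state rates fitted to competitive inhibition or Morrison tight-binding equation giving Ki,app (≈Ki since [S]<<Km).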

Another series is described as follows: LogP. It is filed as physicochemical.
Series [2] addresses T2, human collagenase-3 (Coll3) (Homo sapiens, UniProt P45452).
T2 construct: the catalytic domain was liberated by treatment with 2 mM APMA at room temperature overnight; ubiquitin (N, cleaved yes); made in house; host or cells: E. coli
The experiment in a line: Fluorometric MCA-peptide hydrolysis assay, collagenase-3 (Coll3). It is filed as biochemical. Particulars: apparent Ki; 10 μM MCA peptide substrate, 37° C., pH 7.5; read-out: Coll3 (Ki,app).

Series [3] has as its target T3, catalytic domain of human stromelysin (Hsln) (Homo sapiens, UniProt P08254).
T3 construct: The catalytic domain of human stromelysin (Hsln) was obtained by expression and purification of a C-terminally truncated prostromelysin-1; made in house; host or cells: E. coli BL21
The experiment in a line: Fluorometric MCA-peptide hydrolysis assay, stromelysin (Hsln). Particulars: apparent Ki; 10 μM MCA peptide substrate, 37° C., pH 7.5; read-out: Hsln (Ki,app). In kind it is biochemical. The gist of the method: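 APMA-activated E. coli–expressed catalytic domain, with 10 μM MCA-Pro-Leu-Gly-Leu-DPA-Ala-Arg-NH2 at 37 °C. Buffer was pH 7.5 Tricine with NaCl, CaCl2, zinc acetate and 2% final DMSO; fluorescence read at ex 328/em 393 nm over 60 min. Ki,app from steady-state rates fitted to competitive or Morrison tight-binding equations.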

Series [4] can be described thus: Determination of inhibitor concentration in plasma after oral dosing. In kind it is in vivo, Sprague Dawley rats. Particulars: Sprague-Dawley, rat plasma, dose 50 mg/kg, vehicle A (molar equivalent of HCl in water). Here is the method: The dosing solution consisted of the inhibitor dissolved in either a molar equivalent of HCl in water (vehicle A), in 60% aq. propylene glycol (vehicle B), or in 2.8 mg/mL sodium bicarbonate in 60% aqueous propylene glycol (vehicle C), yielding a final concentration that ranged from 10-15 mg/ml. Sprague Dawley rats (Hilltop Lab Animals, Scottsdale, Pa.) were dosed as a function of drug weight per body weight, usually 50 mgper kg. Blood was taken from the rats and centrifuged, and the plasma was stored in the freezer. Drug was extracted from a 50 μl plasma aliquot by adding 1 ml of acetonitrile, shaking for 2 minutes, centrifuging for 15 minutes at 4000 rpm, collecting the supernatant, and then evaporating it to dryness under a stream of nitrogen. The samples were reconstituted with 130 μl of mobile phase, shook for 2 minutes, and centrifuged for 15 minutes at 4000 rpm. The supernatant was collected and the samples were analyzed by injecting 100 μl of supernatant onto HPLC.
Quantitation of drug levels was accomplished by generating a standard curve of known drug amounts that were extracted from added plasma. Drug levels were plotted as a function of time and analyzed to provide area under the curve (AUC) and maximum concentration (Cmax) values.

Series [5] deals with T4, fibroblast collagenase-1 catalytic domain (HFC) (Homo sapiens, UniProt P03956).
T4 construct: The catalytic domain of human collagenase-1 was expressed as a fusion protein with ubiquitin in E. coli; ubiquitin (cleaved yes); made in house; host or cells: E. coli
T4 sequence (P03956 100-269 limits assumed): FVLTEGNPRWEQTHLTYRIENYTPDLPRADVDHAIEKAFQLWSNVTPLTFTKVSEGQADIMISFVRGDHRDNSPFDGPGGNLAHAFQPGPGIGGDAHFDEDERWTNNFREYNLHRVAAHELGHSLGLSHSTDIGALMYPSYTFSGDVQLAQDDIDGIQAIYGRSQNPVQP
The experiment in a line: Fluorometric MCA-peptide hydrolysis assay, fibroblast collagenase-1 (HFC). Particulars: apparent Ki; 10 μM MCA peptide substrate, 37° C., pH 7.5; read-out: HFC (Ki,app). In kind it is biochemical. The gist of the method: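 Human collagenase-1 catalytic domain, expressed in E. coli as ubiquitin fusion, was assayed with 10 μM MCA-Pro-Leu-Gly-Leu-DPA-Ala-Arg-NH2 at 37 °C in Tricine pH 7.5, 2% DMSO, over 60 min (ex 328/em 393 nm). Ki,app came from steady-state rates fitted to competitive or Morrison tight-binding equations.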

For a further series, the target named is T5, Human matrilysin (Matr) (Homo sapiens, UniProt P09237).
T5 construct: the catalytic domain was liberated by treatment with 2 mM APMA at 37° C. for 2 hours; ubiquitin (cleaved yes); made in house; host or cells: E. coli
T5 sequence (P09237 95-267): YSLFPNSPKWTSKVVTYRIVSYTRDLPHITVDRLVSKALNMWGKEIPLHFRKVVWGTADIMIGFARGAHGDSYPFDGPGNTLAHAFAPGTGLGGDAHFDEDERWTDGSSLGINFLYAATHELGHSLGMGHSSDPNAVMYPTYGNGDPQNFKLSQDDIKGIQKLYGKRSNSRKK
As to the kind of experiment: Fluorometric MCA-peptide hydrolysis assay, matrilysin (Matr). In kind it is biochemical. Particulars: apparent Ki; 10 μM MCA peptide substrate, 37° C., pH 7.5; read-out: Matr (Ki,app). In outline: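 Catalytic domain of E. coli-expressed human matrilysin assayed at 37° C, pH 7.5 Tricine buffer, 2% DMSO, with 10 μM MCA-Pro-Leu-Gly-Leu-DPA-Ala-Arg-NH2; fluorescence ex 328/em 393 nm over 60 min. Ki,app from steady-state rates fitted to competitive inhibition or Morrison tight-binding equation.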

T1 sequence (P08253 110-465 limits assumed): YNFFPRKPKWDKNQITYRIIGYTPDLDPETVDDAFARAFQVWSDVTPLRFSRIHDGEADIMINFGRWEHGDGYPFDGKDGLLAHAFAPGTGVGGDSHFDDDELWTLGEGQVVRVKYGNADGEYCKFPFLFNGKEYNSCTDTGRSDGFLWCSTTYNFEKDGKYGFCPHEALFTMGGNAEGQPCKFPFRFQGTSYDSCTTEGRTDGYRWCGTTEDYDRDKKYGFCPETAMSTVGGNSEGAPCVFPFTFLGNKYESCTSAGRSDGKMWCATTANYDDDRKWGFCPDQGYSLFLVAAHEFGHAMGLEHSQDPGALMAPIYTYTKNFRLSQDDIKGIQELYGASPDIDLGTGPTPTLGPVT
T3 sequence (P08254 100-272 limits assumed): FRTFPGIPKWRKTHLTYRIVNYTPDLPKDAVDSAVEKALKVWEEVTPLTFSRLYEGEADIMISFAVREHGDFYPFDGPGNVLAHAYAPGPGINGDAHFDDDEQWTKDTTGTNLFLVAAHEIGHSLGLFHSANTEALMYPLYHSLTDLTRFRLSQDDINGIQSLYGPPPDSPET

`CC(C)(C)[C@@H](CO)NC(=O)[C@@H](CC(=O)O)n1ccc(-c2ccc(-c3ccncc3)cc2)c1` [Example 5(a), N-[2,2-Dimethyl-1(S)-(hydroxymethyl)propyl]-3(R)-[3-[4-(pyridin-4-yl)phenyl]-1H-pyrrol-1-yl]succinamic Acid] gave a melting point of 192 to 194 °C. Besides, the GelA (Ki,app) in series [1] was determined as 1.6 nM. The same compound had a logP in “LogP” of 0.11. Further, in series [2], the Ki was 1.8 nM. Besides, in series [3], the Ki came to 84 nM. Moreover, in series [4], the AUC was 3520 ng·h/mL and the Cmax is 1600 ng/mL.
`CC(C)(C)[C@H](NC(=O)[C@@H](CC(=O)O)n1ccc(-c2ccc(-c3ccc(C(N)=O)cc3)cc2)c1)C(=O)Nc1ccncc1` [Example 5(f), 3(R)-[3-(4′-Carbamoylbiphenyl-4-yl)-1H-pyrrol-1-yl]-N-[2,2-dimethyl-1(S)-(N-(pyridin-4-yl)carbamoyl)propyl]succinamic Acid] yielded a melting point of 194 to 196 °C. Further, the Ki in series [5] is 818 nM. Also, the GelA (Ki,app) in series [1] turned out to be 0.023 nM. In addition, the Ki on Human matrilysin (Matr) is 2.1 nM. Also, the logP in “LogP” worked out at 2.56. Also, in series [2], the Ki stood at 0.012 nM. Besides, the Ki in series [3] came to 0.46 nM.
For `CNC(=O)[C@@H](NC(=O)[C@@H](CC(=O)O)n1ccc(-c2ccc(-c3ccc(C(N)=O)cc3)cc2)c1)C(C)(C)C` [Example 5(e), 3(R)-[3-(4′-Carbamoylbiphenyl-4-yl)-1H-pyrrol-1-yl]-N-(2,2-dimethyl-1(S)-(methylcarbamoyl)propyl)succinamic Acid], the Ki in series [5] stood at 530 nM; at Human matrilysin (Matr) it was 182 nM; in series [2], 0.076 nM; in series [3], 1.7 nM. In addition, the GelA (Ki,app) in series [1] was determined as 0.109 nM. Further, in the series “LogP”, the logP was determined as 1.71.

The logP is a log measure of how a compound divides between an organic and an aqueous phase. High values mean higher lipophilicity, low ones lower lipophilicity. In general, melting point refers to the temperature of the solid-liquid transition. What is called AUC is concentration integrated over time. One may read the Cmax as the highest concentration seen after dosing.

(Values after US6495699B2, “Metalloproteinase inhibitors, pharmaceutical compositions containing them, and their use” (Agouron Pharmaceuticals Inc., priority 1996, dated 2002).)
